Data as given in ChEMBL document CHEMBL1125575, “2-[(2-pyridylmethyl)sulfinyl]-1H-thieno[3,4-d]imidazoles. A novel class of gastric H+/K(+)-ATPase inhibitors” (J Med Chem, 1992).
pIC50: −log10 of the molar value.

How the values were obtained:
Oryctolagus cuniculus = species: Oryctolagus cuniculus; assay: cells; format: functional, organism-based, Stomach
Description: In vitro inhibition of 14C amino-pyrine uptake was determined in isolated rabbit gastric glands after dbcAMP stimulation

Canis familiaris = species: Canis familiaris; assay: animal or person; conditions: Canis lupus familiaris, Stomach, intraduodenal, read-out: Inhibition
animal or person = conditions: Canis lupus familiaris, Stomach, iv, read-out: Inhibition
Rattus norvegicus = species: Rattus norvegicus; assay: animal or person; conditions: Stomach, iv, read-out: Inhibition

pIC50 (Oryctolagus cuniculus; Stomach)	pIC50 (Oryctolagus cuniculus)	Structure (SMILES)	inhibition in vivo at 1 mg/kg (Canis familiaris) [%]	inhibition in vivo at 0.3 mg/kg (animal or person) [%]	inhibition in vivo at 0.5 mg/kg (Rattus norvegicus) [%]
5.52		COc1ccnc(C[S+]([O-])c2nc3cscc3[nH]2)c1OC(F)(F)C(F)F (stereo unspecified)	14	65	51
5.70		[O-][S+](Cc1cc(Oc2ccc(Cl)cc2)ccn1)c1nc2cscc2[nH]1 (stereo unspecified)		76	66
3.00		COc1ccnc(C[S+]([O-])c2nc3cscc3[nH]2)c1C (stereo unspecified)			
3.00		[O-][S+](Cc1nccc(OCC(F)(F)F)c1Cl)c1nc2cscc2[nH]1 (stereo unspecified)			
6.00		[O-][S+](Cc1cc(OCC(F)(F)C(F)(F)F)ccn1)c1nc2cscc2[nH]1 (stereo unspecified)			81
6.40		[O-][S+](Cc1cc(OCc2ccc(Cl)cc2)ccn1)c1nc2cscc2[nH]1 (stereo unspecified)			78
6.00		Cc1sc(C)c2[nH]c([S+]([O-])Cc3cc(OCC(F)(F)C(F)(F)F)ccn3)nc12 (stereo unspecified)			
3.00		[O-][S+](Cc1ncccc1F)c1nc2cscc2[nH]1 (stereo unspecified)			
5.00		[O-][S+](Cc1nccc(OCC(F)(F)C(F)(F)F)c1Cl)c1nc2cscc2[nH]1 (stereo unspecified)			
5.64		[O-][S+](Cc1cc(Oc2ccc(Cl)c(Cl)c2)ccn1)c1nc2cscc2[nH]1 (stereo unspecified)		62	49
4.82		Cc1sc(C)c2[nH]c([S+]([O-])Cc3ccccn3)nc12 (stereo unspecified)			
6.52		[O-][S+](Cc1cc(Oc2ccc(F)cc2F)ccn1)c1nc2cscc2[nH]1 (stereo unspecified)		74	56
3.00		COC(=O)c1sc2[nH]c([S+]([O-])Cc3ccccn3)nc2c1C(=O)OC (stereo unspecified)			
4.60		Cc1cccnc1C[S+]([O-])c1nc2cscc2[nH]1 (stereo unspecified)			
6.30		[O-][S+](Cc1cc(OCc2ccccc2)ccn1)c1nc2cscc2[nH]1 (stereo unspecified)			
6.00		CC(C)Oc1ccnc(C[S+]([O-])c2nc3cscc3[nH]2)c1Cl (stereo unspecified)		87	80
		COCCOc1ccnc(C[S+]([O-])c2nc3cscc3[nH]2)c1Cl (stereo unspecified)			63
5.22		Cc1ccc(C[S+]([O-])c2nc3c(C)sc(C)c3[nH]2)nc1 (stereo unspecified)		46	58
	3.00	[O-][S+](Cc1cc(OC(F)F)ccn1)c1nc2cscc2[nH]1 (stereo unspecified)			
6.00		Cc1cnc(C[S+]([O-])c2nc3cscc3[nH]2)cc1OCC(F)(F)F (stereo unspecified)	92	83	69
5.38		COc1c(C)cnc(C[S+]([O-])c2nc3c(-c4ccccc4)scc3[nH]2)c1C (stereo unspecified)	39		46
6.30		COc1c(OCc2cc(C(F)(F)F)cc(C(F)(F)F)c2)ccnc1C[S+]([O-])c1nc2cscc2[nH]1 (stereo unspecified)			65
3.00		[O-][S+](Cc1ncccc1OC(F)F)c1nc2cscc2[nH]1 (stereo unspecified)			
4.92		COc1ccnc(C[S+]([O-])c2nc3c(C)sc(C)c3[nH]2)c1 (stereo unspecified)		66	
5.44		COc1ccnc(C[S+]([O-])c2nc3cscc3[nH]2)c1OC (stereo unspecified)		82	54
3.00		COc1ccc(C[S+]([O-])c2nc3cscc3[nH]2)nc1 (stereo unspecified)			38
5.52		COc1ccc(-c2scc3[nH]c([S+]([O-])Cc4ncc(C)c(OC)c4C)nc23)cc1 (stereo unspecified)			24
4.30		Cc1cnc(C[S+]([O-])c2nc3cscc3[nH]2)c(C)c1 (stereo unspecified)		91	

pIC50 (Oryctolagus cuniculus; Stomach)	pIC50 (Oryctolagus cuniculus)	Structure (SMILES)	inhibition in vivo at 1 mg/kg (Canis familiaris) [%]	inhibition in vivo at 0.3 mg/kg (animal or person) [%]	inhibition in vivo at 0.5 mg/kg (Rattus norvegicus) [%]
5.70		CCOc1ccnc(C[S+]([O-])c2nc3cscc3[nH]2)c1Cl (stereo unspecified)			
3.92		[O-][S+](Cc1ncccc1OCC(F)(F)F)c1nc2cscc2[nH]1 (stereo unspecified)			23
3.52		Cc1cccc(C[S+]([O-])c2nc3cscc3[nH]2)n1 (stereo unspecified)			
3.00		[O-][S+](Cc1ccc(Cl)cn1)c1nc2cscc2[nH]1 (stereo unspecified)			26
6.00		[O-][S+](Cc1ncccc1Cl)c1nc2cscc2[nH]1 (stereo unspecified)			
3.00		COc1ccnc(C[S+]([O-])c2nc3ccsc3[nH]2)c1 (stereo unspecified)			
6.52		COc1c(OCc2ccc(F)cc2)ccnc1C[S+]([O-])c1nc2cscc2[nH]1 (stereo unspecified)	76	73	78
4.72		COc1cc(C[S+]([O-])c2nc3cscc3[nH]2)ncc1Br (stereo unspecified)	53	59	62
5.52		CCCOc1ccnc(C[S+]([O-])c2nc3cscc3[nH]2)c1Cl (stereo unspecified)			
5.60		Cc1sc(C)c2[nH]c([S+]([O-])Cc3nccc(OC(C)C)c3Cl)nc12 (stereo unspecified)			32
3.00		COC(=O)c1sc2[nH]c([S+]([O-])Cc3cc(OC)ccn3)nc2c1C(=O)OC (stereo unspecified)			
4.49		CC(=O)c1scc2[nH]c([S+]([O-])Cc3cc(OCC(F)(F)F)ccn3)nc12 (stereo unspecified)			
5.70		[O-][S+](Cc1cc(OCC(F)(F)C(F)F)ccn1)c1nc2cscc2[nH]1 (stereo unspecified)	91	66	89
6.10		[O-][S+](Cc1nccc(OCC(F)(F)F)c1OCC(F)(F)F)c1nc2cscc2[nH]1 (stereo unspecified)	45	13	35
4.51		[O-][S+](Cc1ccccn1)c1nc2c(-c3ccccc3)scc2[nH]1 (stereo unspecified)			
5.66		[O-][S+](Cc1cc(Oc2cccc(C(F)(F)F)c2)ccn1)c1nc2cscc2[nH]1 (stereo unspecified)	66		64
3.00		COc1c(C)cnc(C[S+]([O-])c2nc3cscc3[nH]2)c1C (stereo unspecified)			
4.59		Cc1sc(C)c2[nH]c([S+]([O-])Cc3cc(OCC(F)(F)C(F)(F)C(F)(F)F)ccn3)nc12 (stereo unspecified)			
6.30		COc1c(OCc2ccc(C(F)(F)F)cc2)ccnc1C[S+]([O-])c1nc2cscc2[nH]1 (stereo unspecified)	91		51
6.00		[O-][S+](Cc1cc(OCc2ccc(F)cc2F)ccn1)c1nc2cscc2[nH]1 (stereo unspecified)			76
6.15		[O-][S+](Cc1cc(OCc2cc(F)cc(F)c2)ccn1)c1nc2cscc2[nH]1 (stereo unspecified)	96		70
4.21		[O-][S+](Cc1nccc(Oc2ccccc2)c1Cl)c1nc2cscc2[nH]1 (stereo unspecified)			0
5.96		[O-][S+](Cc1cc(OCc2cc(C(F)(F)F)cc(C(F)(F)F)c2)ccn1)c1nc2cscc2[nH]1 (stereo unspecified)	87		43
		COc1c(C)cnc(C[S+]([O-])c2nc3cscc3[nH]2)c1Cl (stereo unspecified)		52	43
5.96		[O-][S+](Cc1cc(OCc2cc(Cl)cc(Cl)c2)ccn1)c1nc2cscc2[nH]1 (stereo unspecified)			64
		[O-][S+](Cc1cc(OCC(F)(F)C(F)(F)F)c(Cl)cn1)c1nc2cscc2[nH]1 (stereo unspecified)			38
6.00		CCCCOc1ccnc(C[S+]([O-])c2nc3cscc3[nH]2)c1 (stereo unspecified)		87	81
